This note sets out measurements from ChEMBL document CHEMBL1201862, “PubChem BioAssay data set” (2004).

Where a name gives a salt, the structure may show the parent alone.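 Growth conditions: 96-well plates. Treatment: test compound, 48 hours, 5 concentrations. Analysis: linear interpolation between bracketing concentrations; unreached endpoints set to highest concentration. At the GI50, growth is halved.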 Active and inactive are the calls of the source. Cut-off read from the data, not from the text of the source: active = GI50 up to about 1.1 µM and inactive = higher.

What all share (test): inhibition of tumour cell growth, NCI panel, 48 h
For assay [1], the system named is DMS-273.
Assay [2] has as its system HOP-18.
The test system of assay [3] is DLD-1.
Assay [4] concerns DMS-114.
Assay [5] has as its system NCI/ADR-RES.
Assay [6] deals with LXFL 529.
The test system of assay [7] is BT-549.
Assay [8] concerns DU-145.

Regarding `CCCCc1nccc2c(C)c3[nH]c4ccccc4c3cc12`, the GI50 in assay [1] is 0.883 µM (active); in assay [2], 0.486 µM (active); in assay [3], 2.81 µM (inactive); in assay [4] it was 1.59 µM (inactive); in assay [5] it was 1.71 µM (inactive).

Consider `O=C(CCc1nnc2s/c(=C\c3ccccc3Cl)c(=O)n12)Nc1cc(Cl)ccc1Cl`, for which the GI50 in assay [2], in assay [3], in assay [4] and in assay [6] was > 100 µM (inactive) in each case.

For the molecule `CC(=O)c1sc(Nc2nnc(-c3ccc(-c4nnc(Nc5nc(C)c(C(C)=O)s5)o4)cc3)o2)nc1C`, the GI50 in assay [1], in assay [2], in assay [3], in assay [4] and in assay [6] was > 100 µM (inactive) throughout.

`COC(=O)c1cc(CC(C)C)c2c(c1)[nH]c1ccccc12`: the GI50 in assay [1] is 53.7 µM (inactive); in assay [3] it was > 100 µM (inactive); in assay [4], 50.4 µM (inactive); in assay [6], > 100 µM (inactive).

Take `O=C1C(Cl)=C(Cl)C(=O)N1C1C2CC3CC(C2)CC1C3` (stereo not drawn): the GI50 is > 100 µM (inactive) in assay [1]; > 100 µM (inactive) in assay [2]; > 60.1 µM (inactive) in assay [3]; > 100 µM (inactive) in assay [4]; 47.5 µM (inactive) in assay [6].

Consider `CNNCc1ccc(C(=O)NC(C)C)cc1` [PROCARBAZINE HYDROCHLORIDE], for which the GI50 was > 500 µM (inactive) in assay [1]; 138 µM (inactive) in assay [2]; > 500 µM (inactive) in assay [3]; > 500 µM (inactive) in assay [7]; > 500 µM (inactive) in assay [8]; > 500 µM (inactive) in assay [6]. Further, the GI50 in assay [5] was > 500 µM (inactive).

For `CC1CC(c2ccc(Cl)c(Cl)c2)=Nc2ccccc2S1` (stereo not drawn), the GI50 in assay [1], in assay [2], in assay [3], in assay [4] and in assay [6] was > 100 µM (inactive) throughout.

In the case of `Clc1ccc2cccc3c2c1C1OC3c2ccccc21` (stereo not drawn), the GI50 in assay [1], in assay [2], in assay [3], in assay [4] and in assay [6] was > 100 µM (inactive) throughout.

As to `O=C(O)C1c2ccccc2C(C(=O)O)c2ccccc21` (stereo not drawn), the GI50 in assay [1], in assay [2], in assay [3], in assay [4] and in assay [6] was > 100 µM (inactive) throughout.

Take `Nc1ncn([C@H]2C[C@H](O)[C@@H](CO)O2)c(=O)n1` [DECITABINE]: the GI50 in assay [2] was > 99.1 µM (inactive); in assay [3], 3.09 µM (inactive); in assay [7] it was 13.6 µM (inactive); in assay [4], 371 µM (inactive); in assay [8] it was 8.79 µM (inactive); in assay [5] it was > 347 µM (inactive).

Consider `CC1=C(O)C(=O)c2cn(C)cc2C1=O`, for which the GI50 in assay [1], in assay [2], in assay [3], in assay [4] and in assay [6] was > 100 µM (inactive) in each case.

Take `Cc1ccc(NCC2(/N=C/c3ccccc3)OC(CO)C(O)C2O)cc1` (stereo not drawn): the GI50 in assay [1] is 31.2 µM (inactive); in assay [3], 72.4 µM (inactive); in assay [4] it was 40 µM (inactive); in assay [6], 77.6 µM (inactive).

Turning to `O=S1(=O)OCCOS(=O)(=O)C1(Br)Br`, the GI50 in assay [1], in assay [3], in assay [4] and in assay [6] was > 100 µM (inactive) throughout.

On to `Cc1ccc(C2C(Cl)C(=O)N2NC(=O)c2ccc(N)cc2)cc1` (stereo not drawn), for which the GI50 in assay [1] is 2.46 µM (inactive); in assay [3] it was 20.5 µM (inactive); in assay [4] it was 10.2 µM (inactive); in assay [6], 15.5 µM (inactive).
